Literature values in patent US5216013A, “Aralkyl-N-terminal cycloalkoxy-C terminal amino hydroxy β-amino acid derivatives” (G. D. Searle & Co., priority 1992, dated 1993).
Square brackets hold non-standard residues; d marks the D form. Peptide text beside a SMILES is read from it. * marks the point of attachment. Sta = CC(C)C[C@H](N)[C@@H](O)CC(=O)O; Isovaleryl = CC(C)CC(=O)*

Assays:
[1] = system: renin
[2] = system: cathepsin D
[3] = system: hog renin; settings: after the injection of hog renin into nephrectomized rats
[4] = system: pepsin

CC(C)CC(=O)N[C@H](C(=O)N[C@H](C(=O)N[C@@H](CC(C)C)[C@@H](O)CC(=O)N[C@@H](C)C(=O)N[C@@H](CC(C)C)[C@@H](O)CC(=O)O)C(C)C)C(C)C [pepstatin] (Isovaleryl-VV[Sta]A[Sta]-OH)
inhibition of renin (in words) [1]: inhibitor | inhibition of cathepsin D (in words) [2]: inhibitor | blood pressure [3]: reduce blood pressure in vivo | inhibition of pepsin (in words) [4]: inhibitor
